In patent US20170065564A1, “BIS-CYCLIC GUANIDINE COMPOUND COMPOSITIONS, METHODS OF USE AND TREATMENT THEREOF” (University of South Florida, priority 2014, published 2017):

Columns and labels:
S. aureus = experiment: Resistance serial passage assay; assay type: cell-based, Staphylococcus aureus; settings: 8 passages, concentration doubled each day
Experimental: (§1) ESKAPE pathogens were grown overnight in liquid media at 37° C. These cultures were then diluted 1:100 in fresh media, and seeded into a 96-well plate. Lead bis-cyclic guanidines or control agents were added to respective wells at half MIC concentrations. Plates were then incubated for 24 hours at 37° C., with bacteria removed from these cultures on the following day, to inoculate fresh media (1:100 dilution) containing compounds at a 2-fold higher concentrations. These were then grown overnight, and the procedure repeated for a total of eight days. […] Each experiment was performed in triplicate, yielding identical results.

[1] = tested on: Staphylococcus aureus (USA300 strain FPR3757); experiment: Murine model of lethal peritonitis; assay type: in vivo, mice; settings: I.V.
Experimental: Using MRSA as a representative ESKAPE organism, we infected mice with 1×10^8 bacterial cells in 5% mucin via intraperitoneal injection. At 1 h post-infection, mice were then I.V. injected with either vancomycin (positive control), or I.M. with our front runner compounds.
Six mice per group were injected with 1×10^8 CFU ml^−1 of Staphylococcus aureus (USA300 strain FPR3757) in PBS containing 5% mucin. […] Mice were monitored twice daily for five days to assess mortality. The clinical endpoint of this study was when the mice reached a pre-moribund state. Characteristics of pre-moribund state include: hunched posture, rapid, shallow and/or labored breathing, ruffled fur, lethargy, failure to respond to stimuli, soiled anogenital area, paralysis, paresis, head tilt, circling, vocalizations, non-purposeful movements and/or were unable to eat or drink. Those mice reaching this state prior to the completion of the 5 day infection period were euthanized. The number of mice surviving between control and treatment groups was compared and analyzed for statistical significance using a log rank test.

MRSA cells = experiment: Time kill assay (lysis by OD600, viability by CFU); assay type: cell-based, Staphylococcus aureus; settings: for cell recovery (viability, CFU/mL vs no drug control): after the 120 minute assay, agent washed out; for cells remaining after exposure (optical density relative to starting values): MRSA, 2.0% SDS, 0.001% benzalkonium chloride, 0.001% benzethonium chloride
Experimental: FIGS. 6A and 6B illustrates that bis-cyclic guanidines are bactericidal but not bacteriolytic. […] Shown is the optical density of cells relative to starting values from three independent experiments. Error bars are shown ±SEM. FIG. 8B is a graph illustrating cell viability of all samples after the 120 min experiment. Compounds were removed by centrifugation and washing of cells, followed by serial dilution and enumeration. Percent recovery was determined by comparison to no drug (ND) controls.
Time kill assays were performed in a 96-well microtiter plate using a BioTek Synergy2 plate reader. To prepare bacterial cultures, stationary phase MRSA cells were inoculated into fresh TSB and grown for 3 hours. After this time, cultures were inoculated into a 96-well microtiter plate at an OD600 of 0.5, followed by the addition of test agent at MIC concentrations. In parallel, 2.0% sodium dodecyl sulfate (SDS), 0.001% benzalkonium chloride, 0.001% benzethonium chloride, and 4 μM lysostaphin were used as positive controls. […] Assays were performed in triplicate over the span of 130 minutes, with OD600 readings taken every 10 minutes.

[2] = tested on: human red blood cells (hRBCs)
Experimental: A hemolysis assay was performed using whole human blood (Bioreclamation), as described previously,^47 with the following modifications. Human red blood cells (hRBCs) were resuspended 20% v/v in 1× HA buffer (4.25 ml 10% NaCl; 1 ml CaCl2 in 50 ml sterile water), and lead agents were added at a concentration of 10 μM, to a final volume of 100 μl. Cells were incubated for 15 minutes at 37° C. before being centrifuged at 5,500 g for 1 minute to pellet non-lysed hRBCs. The supernatant was removed, added to a 96-well microtiter plate and the OD543 read using a Biotek synergy2 plate reader. The negative control was vehicle only (DMF), and the positive control was 1.0% triton X-100.

K. pneumoniae = experiment: Resistance serial passage assay; assay type: cell-based, Klebsiella pneumoniae; settings: 8 passages, concentration doubled each day
Experimental: as §1

Staphylococcus aureus = experiment: MIC micro broth dilution assay; assay type: cell-based; design: key to stacked score activity, 100/MIC, S: stacked score = 100/MIC; settings: S. aureus
Experimental: (§2) For this study we used a representative panel of multi-drug resistant clinical ESKAPE pathogen isolates (Supplemental Table S6).^42 43 3a, 44 45 Gram-positive organisms were grown in tryptic soy broth media (TSB), whilst Gram-negative organisms were grown in lysogeny Broth (LB), as described by us previously. ^43 MIC and MBC determination assays.
(§3) Broth cultures of ESKAPE strains were grown overnight before being diluted 1 in 1,000 in fresh media. Sterile 96-well plates were loaded with culture and compounds (in DMF) were added at decreasing concentrations to equal a total volume of 200 μl per well. Care was taken to not add more than 2.0% DMF to any well. Plates were then incubated at 37° C., and MICs determined after 24 hours by visual inspection for a lack of turbidity in wells. All assays were performed in triplicate with identical results obtained. For both the scaffold ranking and positional scanning samples, relative broad-spectrum activity was determined via stacked scores: […]

Klebsiella pneumoniae = experiment: MIC micro broth dilution assay; assay type: cell-based; design: key to stacked score activity, 100/MIC, K: stacked score = 100/MIC; settings: K. pneumoniae
Experimental: as §2, §3

Acinetobacter baumannii = experiment: MIC micro broth dilution assay; assay type: cell-based; design: key to stacked score activity, 100/MIC, A: stacked score = 100/MIC; settings: A. baumannii
Experimental: as §2, §3

Enterobacter cloacae = experiment: MIC micro broth dilution assay; assay type: cell-based; design: key to stacked score activity, 100/MIC, E: stacked score = 100/MIC; settings: E. cloacae
Experimental: as §2, §3

Enterococcus faecium = experiment: MIC micro broth dilution assay; assay type: cell-based; design: key to stacked score activity, 100/MIC, E: stacked score = 100/MIC; settings: E. faecium
Experimental: as §2, §3

ESKAPE pathogens = experiment: MIC micro broth dilution assay, statements and stacked scores over all ESKAPE pathogens; assay type: cell-based; settings: letters E,S,K,A,P,E = ESKAPE pathogens, — = none
Experimental: as §2
as §3, with “The minimum inhibitory concentration (MIC) for the combinatorial libraries, deconvolved 2157 library, and individual compounds were determined as follows. Broth” for “Broth”

P. aeruginosa = experiment: MIC reanalysis in the presence of the efflux inhibitor reserpine; assay type: cell-based, Pseudomonas aeruginosa; settings: P. aeruginosa isolate 1420; 100 μM of reserpine or 2 μM of compound 1 individually
From the text: Given the minor variations observed in MIC for three of the Gram-negative organisms, and that these particular bacteria are renowned for efflux detoxification of antibacterial agents, we hypothesized that the differences observed likely relate to variation in efflux pump activity between strains. […] The effects observed appear to be universal, regardless of strain or compound tested. […] It should be noted that the data presented herein represents a worst-case scenario. […] Similar data was returned for all front runner agents, against all 10 isolates of the three Gram-negative organisms (data not shown). These findings support the hypothesis that inherent efflux mechanisms of certain Gram-negative organisms result in MIC variations for the lead bis-cyclic guanidines between clinical isolates.

E. faecium = experiment: Resistance serial passage assay; assay type: cell-based, Enterococcus faecium; settings: 8 passages, concentration doubled each day
Experimental: as §1

A. baumannii = experiment: Resistance serial passage assay; assay type: cell-based, Acinetobacter baumannii; settings: 8 passages, concentration doubled each day
Experimental: as §1

Q: What does the source list for CN[C@H](CC(C)C)C(=O)N[C@H]1C(=O)N[C@@H](CC(N)=O)C(=O)N[C@H]2C(=O)N[C@H]3C(=O)N[C@H](C(=O)N[C@H](C(=O)O)c4cc(O)cc(O)c4-c4cc3ccc4O)[C@H](O)c3ccc(c(Cl)c3)Oc3cc2cc(c3O[C@@H]2O[C@H](CO)[C@@H](O)[C@H](O)[C@H]2O[C@H]2C[C@](C)(N)[C@H](O)[C@H](C)O2)Oc2ccc(cc2Cl)[C@H]1O [vancomycin, reference compound]?
A: increase in MIC after serial passage (S. aureus): 128 fold; protectivity ([1]; 5× MIC, 1 h post-infection (not significant)): 50%; protectivity ([1]; 10× MIC, 1 h post-infection): 100%

Q: Which “cell recovery (viability, CFU/mL vs no drug control)” value (MRSA cells) does the source give for “lysostaphin: a S. aureus specific lytic agent, positive control” here?
A: 0%

Q: What about the “lysis of MRSA cells” value (MRSA cells; within 10 minutes of exposure, 4 μM lysostaphin) of the same compound?
A: > 50%

Q: With Triton-X100 as the compound, how does the hemolysis [2] read?
A: 100%

Q: For CO[C@H]1/C=C/O[C@@]2(C)Oc3c(C)c(O)c4c(O)c(c(/C=N/N5CCN(C)CC5)c(O)c4c3C2=O)NC(=O)/C(C)=C\C=C\[C@H](C)[C@H](O)[C@@H](C)[C@@H](O)[C@@H](C)[C@H](OC(C)=O)[C@@H]1C [rifampin, reference compound], which “increase in MIC after serial passage” value (K. pneumoniae) is on record?
A: 128 fold

Q: How did the “cells remaining after exposure (optical density relative to starting values)” value (MRSA cells) turn out when CCCCCCCCCCCCOS(=O)(=O)[O-].[Na+] [SDS, sodium dodecyl sulfate] was run?
A: 52.2%

Q: What about the “cell recovery (viability, CFU/mL vs no drug control)” value (MRSA cells) of the same compound?
A: 0%

Q: For “benzalkonium chloride [listing 1 of 2 here]”, which “cell recovery (viability, CFU/mL vs no drug control)” value (MRSA cells) is on record?
A: 0%

Q: Which results are given for CC(C)(C)CC(C)(C)c1ccc(OCCOCC[N+](C)(C)Cc2ccccc2)cc1 [benzethonium chloride]?
A: cells remaining after exposure (optical density relative to starting values) (MRSA cells): 32.63%; cell recovery (viability, CFU/mL vs no drug control) (MRSA cells): 0%

Q: Which “cells remaining after exposure (optical density relative to starting values)” value (MRSA cells) does the source give for “benzalkonium chloride [listing 2 of 2 here]” here?
A: 28.56%

Q: C[C@H]1c2cccc(O)c2C(=O)C2=C(O)[C@]3(O)C(=O)C(C(N)=O)=C(O)[C@@H](N(C)C)[C@@H]3[C@@H](O)[C@@H]21 [doxycycline] was tested. Which “cell recovery (viability, CFU/mL vs no drug control)” value (MRSA cells) did it give?
A: 92%

Q: With N=C1NC[C@H](CCCCN2C[C@H](CC3CCCCC3)N(CCCCC3CCCCC3)C2=N)N1CCc1cccc(C(F)(F)F)c1 [Compound 8] as the compound, how does the “stacked score activity, 100/MIC, S” value (Staphylococcus aureus) read?
A: 10

Q: What about the “stacked score activity, 100/MIC, K” value (Klebsiella pneumoniae) of the same compound?
A: 20

Q: What about the “stacked score activity, 100/MIC, A” value (Acinetobacter baumannii) of the same compound?
A: 20

Q: What about the “stacked score activity, 100/MIC, E” value (Enterobacter cloacae) of the same compound?
A: 20

Q: What about the “stacked score activity, 100/MIC, E” value (Enterococcus faecium) of the same compound?
A: 20

Q: And the “pathogens against which the compound showed activity at 5 ug/ml” value (ESKAPE pathogens)?
A: EKAPE

Q: And the “pathogens against which the compound showed activity at 10 ug/ml” value (shortened to “pathogens … at 10 ug/ml”) (ESKAPE pathogens)?
A: ESKAPE

Q: And the “pathogens against which the compound showed activity at 25 ug/ml” value (shortened to “pathogens … at 25 ug/ml”) (ESKAPE pathogens)?
A: ESKAPE

Q: With N=C1NC[C@H](CCCCN2C[C@@H](Cc3cccc4ccccc34)N(CCc3ccc(-c4ccccc4)cc3)C2=N)N1CCCCC1CCCCC1 [Compound 15] as the compound, how does the “stacked score activity, 100/MIC, S” value (Staphylococcus aureus) read?
A: 20

Q: What about the “stacked score activity, 100/MIC, K” value (Klebsiella pneumoniae) of the same compound?
A: 10

Q: What about the “stacked score activity, 100/MIC, A” value (Acinetobacter baumannii) of the same compound?
A: 4

Q: And the “stacked score activity, 100/MIC, E” value (Enterobacter cloacae)?
A: 20

Q: What about the “stacked score activity, 100/MIC, E” value (Enterococcus faecium) of the same compound?
A: 10

Q: What about the “pathogens … at 10 ug/ml” value (ESKAPE pathogens) of the same compound?
A: ESKE

Q: And the “pathogens … at 25 ug/ml” value (ESKAPE pathogens)?
A: ESKAPE

Q: What does the source list for CCCCCCCN1C(=N)N(CCCC[C@H]2CNC(=N)N2CCc2cccc(C(F)(F)F)c2)C[C@H]1Cc1cccc2ccccc12 [Compound 4]?
A: stacked score activity, 100/MIC, S (Staphylococcus aureus): 25; stacked score activity, 100/MIC, K (Klebsiella pneumoniae): 20; stacked score activity, 100/MIC, A (Acinetobacter baumannii): 25; stacked score activity, 100/MIC, E (Enterobacter cloacae): 20; stacked score activity, 100/MIC, E (Enterococcus faecium): 33; pathogens against which the compound showed activity at 4 ug/ml (ESKAPE pathogens; dose 4 ug/ml): ESA; pathogens against which the compound showed activity at 5 ug/ml (ESKAPE pathogens): ESKAE; pathogens against which the compound showed activity at 10 ug/ml (ESKAPE pathogens): ESKAE; pathogens against which the compound showed activity at 25 ug/ml (ESKAPE pathogens): ESKAPE

Q: With COC(=O)[C@H]1[C@H]2C[C@@H]3c4[nH]c5cc(OC)ccc5c4CCN3C[C@H]2C[C@@H](OC(=O)c2cc(OC)c(OC)c(OC)c2)[C@@H]1OC [reserpine, reference compound] as the compound, how does the “effect on growth, agent alone” value (P. aeruginosa) read?
A: no effect

Q: How did the “stacked score activity, 100/MIC, S” value (Staphylococcus aureus) turn out when N=C1NC[C@H](CCCCN2C[C@H](CC3CCCCC3)N(CCc3ccc(-c4ccccc4)cc3)C2=N)N1CCC12CC3CC(CC(C3)C1)C2 [Compound 27] was run?
A: 20

Q: And the “stacked score activity, 100/MIC, K” value (Klebsiella pneumoniae)?
A: 20

Q: And the “stacked score activity, 100/MIC, A” value (Acinetobacter baumannii)?
A: 4

Q: And the “stacked score activity, 100/MIC, E” value (Enterobacter cloacae)?
A: 10

Q: And the “stacked score activity, 100/MIC, E” value (Enterococcus faecium)?
A: 10

Q: And the “pathogens against which the compound showed activity at 5 ug/ml” value (ESKAPE pathogens)?
A: SKP

Q: And the “pathogens … at 10 ug/ml” value (ESKAPE pathogens)?
A: ESKPE

Q: What about the “pathogens … at 25 ug/ml” value (ESKAPE pathogens) of the same compound?
A: ESKAPE

Q: With CN(C)[C@@H]1C(O)=C(C(N)=O)C(=O)[C@@]2(O)C(O)=C3C(=O)c4c(O)cccc4[C@@](C)(O)[C@H]3C[C@@H]12 [tetracycline, reference compound] as the compound, how does the “increase in MIC after serial passage” value (E. faecium) read?
A: 128 fold

Q: What about the “increase in MIC after serial passage” value (A. baumannii) of the same compound?
A: 128 fold
